# pIC50: −log10 of the molar value. Active and inactive are the calls of the source. The rule behind the calls is not given here.
# Target: Ribonuclease H1 (Homo sapiens) (UniProt O60930)
# Experiment: human RNase H1 inhibitors, dose response, biochemical, FRET RNA/DNA duplex cleavage (AID 366);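 note: potency is for inhibitors that lower RNA cleavage and so lower fluorescence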
# Details: fluorescence
# Sequence of Ribonuclease H1 (Homo sapiens) (O60930 whole entry, looked up): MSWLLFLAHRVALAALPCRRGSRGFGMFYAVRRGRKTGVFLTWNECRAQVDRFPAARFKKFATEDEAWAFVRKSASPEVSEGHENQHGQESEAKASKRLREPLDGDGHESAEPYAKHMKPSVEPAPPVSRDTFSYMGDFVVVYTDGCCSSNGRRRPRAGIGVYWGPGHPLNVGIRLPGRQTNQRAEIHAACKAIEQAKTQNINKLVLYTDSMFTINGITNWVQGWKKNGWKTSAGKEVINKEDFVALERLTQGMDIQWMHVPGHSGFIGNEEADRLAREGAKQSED
SMILES,pIC50,IC50
O=C(O)C1Nc2c(Cl)cc(Cl)cc2C2C=CCC12 (stereo not given),5.06,–
COc1c(OC)c(O)c2c(=O)cc(-c3ccc(O)c(O)c3)oc2c1OC,–,inactive
CCOc1ccc(C2=CC(=O)C=CC2=O)cc1,5.24,–
CCOc1cccc(N2C(=O)/C(=C/c3cn(CC(=O)OC)c4ccccc34)C(=O)NC2=S)c1,6.04,–
Cc1cc(Cl)ccc1OCC(=O)Nc1sc(C)c(C)c1C(N)=O,5.37,–
S=C(Nc1ccc2c(c1)Cc1ccccc1-2)Nc1ccc2c(c1)Cc1ccccc1-2,5.89,–
CCOc1ccc(N2C(=O)/C(=C/c3ccc(I)o3)C(=O)NC2=S)cc1,5.70,–
COc1ccc(NC(=O)c2c(N)sc(-c3ccccc3)c2C)cc1,5.70,–
Cc1ccc(C=C2C(=O)NC(=S)N(c3ccccc3Cl)C2=O)o1,–,inactive
CC1=c2c(oc3cc(O)c(Nc4c(C)cc(O)cc4O)c(C)c23)=CC(=O)C1=Nc1c(C)cc(O)cc1O,6.52,–
CCOc1ccc(N2C(=O)/C(=C/c3ccc(Br)o3)C(=O)NC2=S)cc1,6.15,–
O=C1/C(=C/c2ccc(O)c(O)c2)SC(=S)N1C1CCCCC1,5.74,–
O=C1C(Cl)=C/C(=N\S(=O)(=O)c2ccccc2)C(Cl)=C1Cl,5.39,–
Cc1sc(NC(=O)C2CCCO2)c(C(N)=O)c1C (stereo not given),–,inactive
CC(C)c1cccc(O)c(=O)c1,–,> 100 µM (inactive)
O=C1NC(=S)N(c2ccc(Cl)cc2)C(=O)/C1=C\C=C\c1ccccc1[N+](=O)[O-],5.15,–
O=c1c(O)c(-c2cc(O)c(O)c(O)c2)oc2cc(O)cc(O)c12,5.52,–
Nc1c(S(=O)(=O)O)cc(Nc2cccc(S(N)(=O)=O)c2)c2c1C(=O)c1ccccc1C2=O,5.59,–
Cc1ccc(NC(=O)c2c(NC(=O)c3ccccc3F)sc3c2CCCCC3)cc1,6.49,–
COc1ccc2oc(=O)c(-c3csc(Nc4ccc(Br)cc4)n3)cc2c1,6.05,–

SMILES,pIC50,IC50
O=C1NC(=S)N(c2ccc(Cl)cc2)C(=O)/C1=C/c1ccc(Br)o1,6.22,–
O=C1c2ccccc2C(=O)N1c1ccc(-c2nc3ccc(N4C(=O)c5ccccc5C4=O)cc3[nH]2)cc1,6.27,–
C[C@H]1[C@H](O)c2c(c3c(c4c(-c5ccccc5)cc(=O)oc24)OC(C)(C)C=C3)O[C@@H]1C,5.05,–
CC(=O)O[C@H](C)[C@@H]1C2=C(C(=O)C[C@]1(C)O)C(=O)c1c(ccc(-c3ccc4c(c3O)C(=O)C3=C(C4=O)[C@@H]([C@@H](C)OC(C)=O)[C@@](C)(O)CC3=O)c1O)C2=O,5.22,–
C=C(C)[C@@H]1CCc2c(O)c(O)c(=O)cc(C)c2C1,5.42,–
C=Cc1c(C)c2cc3[nH]c(cc4nc(cc5nc(cc1[nH]2)C(C)=C5CCC(=O)O)C(CCC(=O)O)=C4C)c(C)c3C=C,6.70,–
O=C(Oc1ccccc1)Oc1c(Cl)cc2oc(=O)sc2c1Cl,5.52,–
COC([CH2][Hg][n]1cnc2c1c(=O)n(C)c(=O)n2C)CN1C(=O)c2ccccc2S1(=O)=O (stereo not given),5.48,–
CC(=O)/C=C/C=C/c1ccc2c(c1)OC(CO)C(c1ccc(O)c(O)c1)O2 (stereo not given),5.22,–
O=C1c2ccc(O)cc2C(=O)c2c1ccc(O)c2O,5.15,–
O=C(N/N=C/c1ccccc1Cl)c1cc(O)c(O)c(O)c1,–,inactive
C[C@@H]1Oc2c3c(c4c(-c5ccccc5)cc(=O)oc4c2C(=O)[C@H]1C)OC(C)(C)C=C3,5.51,–
CC(C)=Cc1cc(CCC/C(C)=C/Cc2c(O)cc(C)c(C(=O)O)c2O)co1,5.96,–
Cc1ccccc1-n1c(O)c(C=C2C=CC=N2)c(=O)[nH]c1=S,5.30,–
Cc1ccc(-c2cc(C(=O)Nc3sc(C(=O)OC(C)C)c(C)c3C(N)=O)c3ccccc3n2)s1,6.10,–
c1ccc(C(c2cccc3c2ccc2ccccc23)C(c2ccccc2)c2cccc3c2ccc2ccccc23)cc1 (stereo not given),5.44,–
COc1cc(/C=N\c2sc3c(c2C(=O)NCc2ccccc2)CCCC3)cc(Cl)c1O,5.70,–
O=C1NC(=S)N(c2ccc(Cl)cc2)C(=O)/C1=C/c1ccco1,–,inactive
CN(C)CN1CSC(=S)N(CN(C)C)C1,–,inactive
O=C1/C(=C/c2ccc(O)c(O)c2)SC(=S)N1c1ccc(O)cc1,5.46,–

# Source: PubChem BioAssay AID366 (MTDP, 2006)
